The record followed here is DBAASP.

Holding throughout (assay): ≥ marks a high value that may be exact or a test limit, other limits are often not marked, values filed in µg/mL are converted to µM
Assay [1] deals with Acinetobacter baumannii KCTC 2508.
Assay [2] has as its system Bacillus subtilis KCTC 2217.
Assay [3] relates to Staphylococcus aureus ATCC 25923.
Assay [4] concerns Bacillus megaterium Bm11.
Assay [5] deals with Escherichia coli ML-35.
The subject of assay [6] is Pseudomonas aeruginosa ATCC 27853.
Assay [7] deals with Salmonella enterica subsp. enterica serovar Typhimurium ATCC 14028.
Assay [8] deals with Staphylococcus aureus 710A.
In assay [9] the test system is Bacillus subtilis ATCC 11060.
Assay [10] relates to Enterococcus faecalis ATCC 29212.
The test system of assay [11] is Escherichia coli 078.
Assay [12] relates to Escherichia coli ATCC 25922.
For assay [13], the system named is Escherichia coli CMCC 44102.
Assay [14] deals with Escherichia coli CVCC 1515.
Assay [15] concerns Escherichia coli ER2566.
Assay [16] relates to Escherichia coli K88.
Assay [17] deals with Escherichia coli UB1005.
Assay [18] relates to Pseudomonas aeruginosa ATCC 10419.
Assay [19] relates to Pseudomonas aeruginosa ATCC 21625.
Assay [20] deals with Pseudomonas aeruginosa ATCC 21630.
Assay [21] relates to Salmonella enterica subsp. enterica serovar Pullorum C79-13.
Assay [22] deals with Salmonella enterica subsp. enterica serovar Typhimurium C77-31.
Assay [23] deals with Staphylococcus aureus ATCC 29213.
The test system of assay [24] is Staphylococcus epidermidis ATCC 12228.
In assay [25] the test system is Escherichia coli KpC+001812446.
In assay [26] the test system is Escherichia coli KpC+002101123.
Assay [27] relates to Klebsiella pneumoniae ATCC 13883.
Assay [28] concerns Klebsiella pneumoniae KpC+001825971.
For assay [29], the system named is Staphylococcus aureus MR.
Assay [30] concerns Bacillus subtilis ATCC 23857.
Assay [31] relates to Citrobacter freundii.
In assay [32] the test system is Enterobacter cloacae.
Assay [33] relates to Enterococcus faecalis.
Assay [34] relates to Escherichia coli NDM-1.
Assay [35] has as its system Escherichia coli O157:H7.
For assay [36], the system named is Klebsiella oxytoca.
Assay [37] deals with Klebsiella pneumoniae NDM-1.
The subject of assay [38] is Morganella morganii.
The test system of assay [39] is Pseudomonas aeruginosa ATCC 15692.
The subject of assay [40] is Salmonella typhimurium PY1.
The subject of assay [41] is Staphylococcus aureus ATCC 1717.
Assay [42] has as its system Escherichia coli DH5alpha.
Assay [43] has as its system Klebsiella pneumoniae KAY 2026.
Assay [44] deals with Staphylococcus aureus Newman.
Assay [45] has as its system Staphylococcus epidermidis ATCC 35984.
The subject of assay [46] is Streptococcus mutans JM11.

The structures appear in SMILES notation. Values after ≈ are worked out from the molar mass of the structure shown. Values joined by “and” are separate entries in the source; they are usually repeats but may differ in a detail not shown here. Equal values may be shown once. Some results are limits rather than exact numbers.

Regarding `CC(C)C[C@H](NC(=O)[C@H](CCCCN)NC(=O)[C@H](CCCCN)NC(=O)[C@H](CC(C)C)NC(=O)[C@H](CC(C)C)NC(=O)[C@H](CCCCN)NC(=O)[C@H](CCCCN)NC(=O)[C@H](CC(C)C)NC(=O)[C@H](CC(C)C)NC(=O)[C@@H]1CCCN1C(=O)[C@H](CCCCN)NC(=O)[C@@H](N)CCCCN)C(N)=O` [KKPLLKKLLKKL], the MIC is 25 µM (≈ 36.2 µg/mL) in [1]; 1.56 µM (≈ 2.26 µg/mL) in [2]; 1.56 µM and > 0.78 µM in assay [3].

With `CC[C@H](C)[C@H](NC(=O)[C@H](CCCCN)NC(=O)[C@H](CCCCN)NC(=O)[C@H](CC(C)C)NC(=O)[C@H](CC(C)C)NC(=O)CN)C(=O)NCC(=O)N[C@@H](CCCCN)C(=O)N[C@@H](CCCCN)C(=O)N[C@@H](C)C(=O)N[C@@H](CCCCN)C(=O)N[C@@H](CCCCN)C(=O)N[C@@H](C)C(=O)NCC(=O)N[C@@H](CCCCN)C(=O)N[C@@H](CCCCN)C(=O)N[C@@H](CC(C)C)C(=O)NCC(=O)N[C@@H](Cc1ccc(O)cc1)C(N)=O` [GLLKKIGKKAKKAGKKLGY], the MIC in assay [4] was not below 32 µM; in assay [5], 4 µM (≈ 8.11 µg/mL); in assay [6], 16 µM (≈ 32.5 µg/mL); in [7], more than 32 µM; in [8], not below 32 µM.

Consider `CC[C@H](C)[C@H](NC(=O)[C@H](CCCCN)NC(=O)[C@H](CCCN=C(N)N)NC(=O)[C@H](CC(C)C)NC(=O)[C@H](Cc1ccccc1)NC(=O)[C@H](CCCN=C(N)N)NC(=O)CNC(=O)[C@H](Cc1ccccc1)NC(=O)[C@@H](N)CCCN=C(N)N)C(=O)N[C@@H](CCCN=C(N)N)C(=O)N[C@@H](CCCN=C(N)N)C(=O)N[C@@H](Cc1ccccc1)C(=O)N[C@@H](CCCN=C(N)N)C(=O)N1CCC[C@H]1C(=O)N[C@@H](CCCCN)C(=O)N[C@H](C(=O)N[C@H](C(=O)N[C@H](C(=O)N[C@H](C(=O)N[C@H](C(=O)N[C@@H](CCC(N)=O)C(=O)NCC(=O)N[C@@H](CO)C(=O)N[C@@H](C)C(=O)N[C@@H](CCCN=C(N)N)C(=O)N[C@@H](Cc1ccccc1)C(=O)NCC(N)=O)[C@@H](C)CC)[C@@H](C)O)[C@@H](C)CC)[C@@H](C)O)C(C)C` [RFGRFLRKIRRFRPKVTITIQGSARFG], for which the MIC in assay [9] was 16 µM (≈ 52.2 µg/mL); in assay [10], 16 µM (≈ 52.2 µg/mL); in [11] it was 7.99 µM (≈ 26.1 µg/mL); in [12] it was 1.99 µM and 3.83 µM; in [13], 1.01 µM (≈ 3.3 µg/mL); in assay [14], 7.99 µM (≈ 26.1 µg/mL). Also, the MIC was determined as 0.49 µM (≈ 1.6 µg/mL) in assay [15]; 1.99 µM (≈ 6.5 µg/mL) in [16]; 1.01 µM (≈ 3.3 µg/mL) in assay [17]; 4.01 µM (≈ 13.1 µg/mL) in assay [18]; 1.99 µM (≈ 6.5 µg/mL) in assay [19]; 7.99 µM (≈ 26.1 µg/mL) in assay [20]. In addition, the minimal inhibitory concentration (MIC) turned out to be 1.99 µM (≈ 6.5 µg/mL) in assay [6]; 4.01 µM (≈ 13.1 µg/mL) in [21]; 4.01 µM (≈ 13.1 µg/mL) in assay [7]; 4.01 µM (≈ 13.1 µg/mL) in assay [22]; 1.01 µM (≈ 3.3 µg/mL) in assay [3]; 1.99 µM (≈ 6.5 µg/mL) in assay [23]. This molecule also gave an MIC in assay [24] of 16 µM (≈ 52.2 µg/mL).

For the molecule `CC[C@H](C)[C@H](NC(=O)[C@@H](NC(=O)[C@H](CO)NC(=O)[C@H](C)NC(=O)[C@@H](NC(=O)[C@H](CCCCN)NC(=O)[C@H](CCCCN)NC(=O)[C@@H](NC(=O)[C@@H](NC(=O)[C@H](CC(=O)O)NC(=O)[C@H](Cc1ccccc1)NC(=O)[C@H](CC(C)C)NC(=O)CNC(=O)[C@H](Cc1cnc[nH]1)NC(=O)CNC(=O)CN)C(C)C)[C@@H](C)CC)C(C)C)C(C)C)C(=O)NCC(=O)NCC(=O)N[C@@H](CC(C)C)C(N)=O` [GGHGLFDVIKKVASVIGGL], the minimal inhibitory concentration (MIC) was 34 µM (≈ 63.5 µg/mL) in assay [12]; not below 34 µM in assay [25]; 9 µM (≈ 16.8 µg/mL) in assay [26]; not below 34 µM in [27]; not below 34 µM in assay [28]; more than 34 µM in assay [6]. Moreover, the MIC in [3] was 9 µM (≈ 16.8 µg/mL); in assay [29], 17 µM (≈ 31.7 µg/mL).

Turning to `CC[C@H](C)[C@H](NC(=O)CN)C(=O)N[C@H](C(=O)N[C@@H](C)C(=O)NCC(=O)N[C@H](C(=O)N[C@H](C(=O)N[C@H](C(=O)N[C@@H](CCCCN)C(=O)N[C@H](C(=O)N[C@@H](CCCCN)C(=O)N[C@@H](CCCCN)C(N)=O)[C@@H](C)CC)[C@@H](C)CC)[C@@H](C)CC)[C@@H](C)CC)[C@@H](C)CC` [GIIAGIIIKIKK], the MIC in assay [30] was 8 µM (≈ 10.1 µg/mL); in assay [31] it was 8 µM (≈ 10.1 µg/mL); in [32], 22.6 µM (≈ 28.6 µg/mL); in assay [33], 16 µM (≈ 20.3 µg/mL); in assay [34], 16 µM (≈ 20.3 µg/mL); in assay [35], not below 32 µM. For the same molecule, the MIC was 16 µM (≈ 20.3 µg/mL) in assay [36]; 22.6 µM (≈ 28.6 µg/mL) in [37]; not below 128 µM in [38]; not below 64 µM in [39]; not below 64 µM in assay [40]; not below 128 µM in assay [41].

With `CC[C@H](C)[C@H](NC(=O)[C@@H](N)Cc1ccccc1)C(=O)N[C@@H](CCCN=C(N)N)C(=O)N[C@@H](CCCCN)C(=O)N[C@@H](Cc1ccccc1)C(=O)N[C@@H](CC(C)C)C(=O)N[C@@H](CCCCN)C(=O)N[C@@H](CCCCN)C(=O)N[C@@H](Cc1c[nH]c2ccccc12)C(=O)N[C@@H](CC(C)C)C(=O)N[C@@H](CC(C)C)C(N)=O` [FIRKFLKKWLL], the MIC in assay [42] is 5.47 µM (≈ 8.16 µg/mL); in assay [43] it was 2.98 µM (≈ 4.44 µg/mL); in assay [39], 14.4 µM (≈ 21.5 µg/mL); in assay [44], 5.62 µM (≈ 8.39 µg/mL); in [45] it was 5.11 µM (≈ 7.62 µg/mL); in [46] it was 2.86 µM (≈ 4.26 µg/mL).

The term MIC denotes the least concentration at which growth counts as inhibited. A higher MIC goes with a less susceptible organism.
